Results reported in patent US5340818A, “Methods and compositions for inhibiting tumor cell growth” (priority 1993, dated 1994).
Several values for one entry are separate records, joined by “and”; a condition that tells them apart may be missing. Identical values can stand only once. Like-named read-outs stand apart in the source and are kept apart here.

Experiments:
Assay type in all cases: cell-based, human
[1] = test system: protein synthesis in HL-60 cells; assay: Inhibition of [2,3,4,5-3H]L-Leu incorporation into protein of HL-60 cells; details: for inhibition at 30 µg/mL: Homo sapiens; for % Inhibition of Precursor Incorporation, Protein: at 0.03 mg/mL
Description: (§1) For the precursor incorporation studies, each compound (in 0.3% dimethylsulfoxide) was preincubated with HL-60 cells (a human promyelocytic leukemic cell line) 2.2×10^6 /ml, for 15 min prior to the addition of the labeled precursor (obtained from ICN Radiochemicals, Irvine, Calif.) and then incubated for 30 min. The precursors used for incorporation into DNA, RNA and protein were [^3 H-methyl]dThd (1 μCi, 0.15 nmole/ml), [5-^3 H]Cyd (5 μCi, 0.23 nmol/ml), and [2,3,4,5-^3 H]L-Leu (0.5 μCi, 0.004 nmol/ml), respectively. Incorporation of radioactivity in the absence of a plant compound and in the presence of dimethylsulfoxide was used as a control. The control values for incorporation into DNA, RNA and protein were 8,500, 5,600 and 1,700 cpm/10^6 cells, respectively. The incubation conditions and the procedures for isolating DNA, RNA and protein fractions have been previously described (Chou, T. -C., et al., Cancer Res., 43:3074-3079 (1983)) .
(§2) HL-60 cells were incubated with [5-^3 H]Cyd or [2,3,4,5-^3 H]L-Leu in the presence and absence of alkaloids (0.03 mg/ml) in order to find the effects of the alkaloid on the incorporation of labeled precursors into RNA or protein. […] Over 90% of RNA and protein biosynthesis were inhibited by compounds 11, 16, 17, 22, 28, 29and 30 (Table 1). […] In most cases, the amount required to inhibit precursor incorporation into DNA was less than that to inhibit precursor incorporation into RNA or protein (i.e. DNA synthesis is inhibited most potently).

[2] = test system: DNA synthesis in HL-60 cells; assay: Inhibition of [3H-methyl]dThd incorporation into DNA of HL-60 cells; details: for inhibition at 30 µg/mL: Homo sapiens, HL-60, at 0.03 mg/mL, read-out: % Inhibition of Precursor Incorporation, DNA; for inhibition of DNA synthesis, in words: HL-60, 0.03 mg/ml; for % Inhibition of Precursor Incorporation, DNA: at 0.03 mg/mL
Description: as §1, with “control.” for “control. The control values for incorporation into DNA, RNA and protein were 8,500, 5,600 and 1,700 cpm/10^6 cells, respectively. The incubation conditions and the procedures for isolating DNA, RNA and protein fractions have been previously described (Chou, T. -C., et al., Cancer Res., 43:3074-3079 (1983)) .”
Human promyelocytic cells (HL-60) were incubated with [^3 H-methyl]dTHDin the presence and absence of a plant alkaloid.

HL-60 cells = assay: HL-60 cell growth inhibition, 72 h; details: HL-60, 72 h; for IC50: read-out: Cell Growth Inhibition, IC50
Description: For growth inhibition studies, HL-60 cells (1.5×10^5 /ml) were grown in RPMI 1640 media (GIBCO, Grand Island, N.Y.) at 37° C. in humidified 5% CO2 for 72 h. Viable cells were determined using trypan blue exclusion and counted in a hemocytometer. The fractional inhibition for each compound concentration (0.0025-0.05 mg/ml in 0.1% dimethylsulfoxide) was analyzed with the median-effect plot using a computer program (Chou, T. -C and P. Talalay, Adv. Enzyme Regul., 22:27-55 (1984); Chou, J. and T. -C. thou, Dose-Effect analysis with microcomputers: Quantitation of ED50, LD50, synergism, antagonism, low-dose risk, receptor ligand binding and enzyme kinetics. A computer software disk for Apple II series or IBM-PC and manual. Elsevier Science Publishers, Elsevier-BioSoft, Cambridge, United Kingdom (1986)). The median-effect concentration (IC50) was determined automatically for three to five dose-effect levels. Cell growth in the absence of plant compound and in the presence of dimethylsulfoxide was used as a control. Dimethylsulfoxide alone inhibited cell growth 3.9%±1.5% during the 72 h incubation period. Those data with negative values represent activations.

[3] = test system: RNA synthesis in HL-60 cells; assay: Inhibition of [5-3H]Cyd incorporation into RNA of HL-60 cells; details: for inhibition at 30 µg/mL: Homo sapiens, HL-60, 0.5 h
Description: as §1, §2

[4] = HL-60, at 0.03 mg/mL, read-out: % Inhibition of Precursor Incorporation, Protein
[5] = at 0.03 mg/mL, read-out: % Inhibition of Precursor Incorporation, RNA
[6] = HL-60, read-out: % Inhibition of Precursor Incorporation, Protein, at 0.03 mg/mL
[7] = read-out: % Inhibition of Precursor Incorporation, RNA, at 0.03 mg/mL

Row | IC50 (HL-60 cells; Homo sapiens) | Cell Growth Inhibition, IC50 (HL-60 cells) | IC50 (HL-60 cells) | Compound | inhibition at 30 µg/mL [1, 4] | inhibition at 30 µg/mL [2] | cell growth inhibition, in words (HL-60 cells) | inhibition at 30 µg/mL [3, 5] | inhibition of DNA synthesis, in words [2] | % Inhibition of Precursor Incorporation, Protein [1] | % Inhibition of Precursor Incorporation, DNA [2] | % Inhibition of Precursor Incorporation, RNA ([3]; at 0.03 mg/mL) | inhibition at 30 µg/mL [1, 6] | inhibition at 30 µg/mL [3, 7]
1 | 2.9 µg/mL and 8.2 µM | – | – | COc1c(O)ccc2c(=O)c3c(O)cc4c(c3n(C)c12)C=CC(C)(C)O4 [Compound 42, Citracridone-I] | 90.5% | 98.5% | – | 96.9% | – | – | – | – | – | –
2 | 6.4 µg/mL and 18 µM | – | – | COc1c(O)ccc2c(=O)c3c(O)cc4c(c3n(C)c12)CCC(C)(C)O4 [Compound 43, 1,2-dihydrocitracridone-I] | 81.9% | 94.9% | only half as potent as their parent compounds | 68% | same potency as their parent compounds | – | – | – | – | –
3 | > 40 µg/mL and > 109 µM | – | – | COc1ccc2c(=O)c3c(O)cc4c(c3n(C)c2c1OC)C=CC(C)(C)O4 [Compound 44, Citracridone-II] | 62.7% | 77.6% | – | 96.4% | – | – | – | – | – | –
4 | 5.9 µg/mL and 15.5 µM | – | – | COc1ccc2c(=O)c3c(OC)cc4c(c3n(C)c2c1OC)C=CC(C)(C)O4 [Compound 45, 6-O-Methylcitracridone-II] | 49.8% | 98.7% | significantly active | 37.8% | – | – | – | – | – | –
5 | 8.8 µg/mL and 20.3 µM | – | – | CC(=O)Oc1cccc2c(=O)c3c(O)c(CC=C(C)C)c4c(c3n(C)c12)C=CC(C)(C)O4 [Compound 47, 11-O-Acetyl-N-methyl severifoline] | 36.2% | 58.4% | – | 16.2% | – | – | – | – | – | –
6 | 3.1 µg/mL and 8.8 µM | – | – | COc1c2c(c(O)c3c(=O)c4cccc(O)c4n(C)c13)C=CC(C)(C)O2 [Compound 48, Pyranofoline] | 96.4% | 98.8% | better activity than that of acronycine | 97.2% | inhibited DNA synthesis significantly | – | – | – | – | –
7 | – | > 0.04 mg/mL | > 66.4 µM | CC(C)=CCc1c(O)c(C2CC(C)(C)Oc3cc(O)c4c(=O)c5ccccc5[nH]c4c32)c(O)c2c(=O)c3ccccc3n(C)c12 (centres unmarked) [Compound 52, Glycobismine-A] | – | – | – | – | not active | -13.2% | -27.8% | -57.4% | – | –
8 | – | > 0.04 mg/mL | > 124 µM | Furofoline-II [Compound 51] | – | – | – | – | not active | 19.5% | 13.1% | -46.3% | – | –
9 | – | 0.0187 mg/mL | 47.1 µM | Methoxymethyl-pyranofoline [Compound 49] | – | – | – | – | inhibited DNA synthesis significantly | 87.3% | 85.3% | 70.1% | – | –

Continued, compound first:

Row | Compound | IC50 (HL-60 cells; Homo sapiens) | Cell Growth Inhibition, IC50 (HL-60 cells) | IC50 (HL-60 cells) | inhibition at 30 µg/mL [1, 4] | inhibition at 30 µg/mL [2] | cell growth inhibition, in words (HL-60 cells) | inhibition at 30 µg/mL [3, 5] | inhibition of DNA synthesis, in words [2] | % Inhibition of Precursor Incorporation, Protein [1] | % Inhibition of Precursor Incorporation, DNA [2] | % Inhibition of Precursor Incorporation, RNA ([3]; at 0.03 mg/mL) | inhibition at 30 µg/mL [1, 6] | inhibition at 30 µg/mL [3, 7]
10 | COc1cc(O)c2c(=O)c3ccc(O)c(OC)c3n(C)c2c1CC=C(C)C [Compound 29, Grandisinine] | 6 µg/mL and 16.9 µM | – | – | 94.6% | 98.5% | significant activity against leukemic cells in vitro | 96.5% | – | – | – | – | – | –
11 | COc1ccc2c(=O)c3c(O)cc(OC)c(CC=C(C)C)c3n(C)c2c1OC [Compound 30, Balyumine-B] | 1.7 µg/mL and 4.4 µM | – | – | 87% | 86.9% | – | 92.5% | – | – | – | – | – | –
12 | CC1(C)C=Cc2c(cc(O)c3c(=O)c4ccccc4[nH]c23)O1 [Compound 32, des-N-methyl-nor-acronycine] | 9.1 µg/mL and 31 µM | – | – | 85.9% | 69.2% | only showed moderate cell growth inhibitory activity | 77.5% | did not show good activity | – | – | – | – | –
13 | COc1cc2c(c3[nH]c4ccccc4c(=O)c13)C=CC(C)(C)O2 [Compound 33, des-N-methyl acronycine] | 5.4 µg/mL and 17.6 µM | – | – | 86.4% | 93.8% | significantly active | 67.3% | markedly increased | – | – | – | – | –
14 | Cn1c2ccccc2c(=O)c2c(O)cc3c(c21)C=CC(C)(C)O3 [Compound 35, Noracronycine] | > 40 µg/mL and > 130 µM | – | – | 4.7% | 25.5% | only showed moderate cell growth inhibitory activity | 94% | – | – | – | – | – | –
15 | Cn1c2c(O)cccc2c(=O)c2c(O)cc3c(c21)CCC(C)(C)O3 [Compound 38, 1,2-Dihydro-11-hydroxy-nor acronycine] | 5.5 µg/mL and 16.9 µM | – | – | 92.2% | 98.8% | only half as potent as their parent compounds | 76.6% | same potency as their parent compounds | – | – | – | – | –
16 | COc1cccc2c(=O)c3c(O)cc4c(c3n(C)c12)C=CC(C)(C)O4 [Compound 39, 11-methoxy-noracronycine] | – | 0.0058 mg/mL | 17.2 µM | – | – | – | – | – | 36.2% | 98.9% | 39.9% | – | –
17 | CC(C)=CCc1c2c(c3[nH]c4c(O)cccc4c(=O)c3c1O)C=CC(C)(C)O2 [Compound 40, Atalaphyllinine] | 1.2 µg/mL and 3.2 µM | – | – | – | 98.8% | comparable activity | – | greater activity | – | – | – | 41.8% | 24.4%
18 | CC(C)=CCc1c2c(c3c(c1O)c(=O)c1ccccc1n3C)C=CC(C)(C)O2 [Compound 41, N-Methylseverifoline] | > 40 µg/mL and > 107 µM | – | – | 13.2% | 21.3% | only showed moderate cell growth inhibitory activity | -17.9% | no effect on the inhibitory activity | – | – | – | – | –
19 | CC(C)=CCc1c2c(c3c(c1O)c(=O)c1cccc(O)c1n3C)C=CC(C)(C)O2 [Compound 46, 11-Hydroxy-N-methyl severifoline] | 5.9 µg/mL and 15.1 µM | – | – | – | 97.9% | – | – | significant activity | – | – | – | 4.22% | 16.7%
